Assay results reported in patent US20080193566A1, “Use of high dose concentrations of gaseous nitric oxide” (priority 2007, published 2008).

What was measured:
[1] = Viability after 25,000 ppm gNO (Example 5), NHLF; format: cell-based; conditions: human, normal human lung fibroblast cells (NHLF)
Protocol: (§1) The purpose of this example is to illustrate the effects on normal human cell lines compared to the effects on cancerous cell lines of high-dosage gNO.
(§2) The above study was repeated. In addition to the A549, NCI-H23, NCI-H460, HTB-58, H2170 and H441 cells, four other cell lines were added—normal human bronchial epithelial cells (NHBE), normal human endothelial lung vascular cells (NHVE), normal human fibroblast cells (NHLF), and a squamous lung cancer cell line (H2170).
(§3) FIG. 8, embodiments A, B, C, and D, illustrate the viability of thee three normal human cell lines and one cancerous cell line to which 25,000 ppm gNO is administered for up to 15 minutes. The NHBE cells (embodiment A), experienced a decrease in viability after only 6 minutes of 25,000 ppm gNO administration, resulting in a viability of less than 10%. The NHVE cells (embodiment B) experienced a decrease in viability after only 6 minutes of 25,000 ppm gNO administration, resulting in a viability of less than 10%. The NHLF cells (embodiment C) also experienced a decrease in viability after only 6 minutes of 25,000 ppm gNO administration, resulting in a viability of about 30%. The H2170 cancerous cells experienced a dramatic decrease in viability after only 6 minutes of 25,000 ppm gNO administration, resulting in a viability of less than 10%.

[2] = tested on: non-small cell lung cancer (NSCLC) cells lines; test: MTS cell proliferation assay, 25,000 ppm gNO (Example 4), NSCLC cell line panel; format: cell-based, human; conditions: between 6 and 9 minutes, all five cancer cell lines
Description: The purpose of this example is to illustrate the tumorcidal activity of high-dosage gNO. We examined the cellular sensitivity to 25,000 ppm of gNO on 5 non-small cell lung cancer (NSCLC) cells lines by an MTS cell proliferation assay.
Human lung cancer cell lines A549, NCI-H23, NCI-H460, HTB-58, H2170, and H441 (commercially available from American Type Culture Collection (“ATCC”), Manassas, Va.) were maintained in culture medium recommended by ATCC. All media were supplemented with 1% penicillin/streptomycin and 10% fetal bovine serum (commercially available from Invitrogen Gibco-BRL, Burlington, Ontario, Canada). […]
After 24 hours, the A549, NCI-H23, NCI-H460, HTB-58, H2170 and H441 cells were treated with 25,000 ppm gNO or air (control) for 1 minute, 3 minutes, 6 minutes, 9 minutes, 10 minutes, 20 minutes, and 30 minutes. Immediately following treatment, the viability of the cells was determined using a colorimetric MTS (3-(4,5-dimethylthiazol-2-yl)-5-(3-carboxymethoxyphenyl)-2-(4-sulfophenyl)-2H-tetrazolium, inner salt) cell proliferation assay (commercially available as the CellTiter 96® Aqueous One Solution Cell Proliferation Assay (MTS) from Promega, Madison, Wis., USA) according to the manufacturer's protocol. […] Absorbance was measured at 490 nm for each well using a micro-plate reader (commercially available from Dynex Technologies, Chantilly, Va., USA). […]

[3] = Viability after 25,000 ppm gNO (Example 5), NHVE; format: cell-based; conditions: human, normal human endothelial lung vascular cells (NHVE)
Protocol: as §1, §2, §3

[4] = tested on: H460-epithelial metastatic; large cell lung cancer cells; test: MTS proliferation assay, H460 cells exposed to 350 ppm gNO (Example 1); format: cell-based, human; conditions: 350 ppm NO, 2 hours, RPMI medium
Description: The purpose of this example is to illustrate the effect of continuous gaseous nitric oxide (gNO) 200 ppm and 350 ppm compared to air (control) on the survival of a representative line of cancer cells. […] […] The plates then were removed and cell viability assessed by an MTS proliferation assay.
(§4) When exposed to 350 ppm of gNO, however, cancer cell survival rates decrease dramatically.

cancer cell lines = test: Viability after 25,000 ppm gNO (Example 5, repeat), cancer cell line panel; format: cell-based, human; conditions: between about 6 and about 9 minutes, all five cancer cell lines, repeat study
Protocol: as §1, §2

Staphylococcus aureus = test: S. aureus on blood agar plates exposed to 25,000 ppm gNO (Example 2); format: cell-based
Description: The purpose of this example is to observe the possibility of a novel bactericidal high dose (25,000 ppm) effect of gaseous nitric oxide (gNO) on an ATCC strain of Staphylococcous aureus plated on a blood agar media and determine a time effect of this dosage.
A closed environment treatment chamber was used (see, “A direct nitric oxide gas delivery system for bacterial and mammalian cell cultures,” A. Ghaffari, D. H. Neil, A. Ardakani, J. Road, A. Ghahary, C. C. Miller. Nitric Oxide 12(3):129-140, 2005, herein incorporated by reference in its entirety). The following steps were performed: • 1. Calibrated the AeroNOx analyzer as per standard procedure. • 2. Calibrated the closed environment treatment chamber as per standard procedure. • 3. In a 50 mL tube, known Staphylococcus aureus bacteria in 10 mL Nutrient Broth was grown overnight or for about 12 hours in a shaker incubator. • 4. Measured optical density of grown Staphylococcus aureus using a spectrophotometer set at 600 nm. Used original nutrient broth as a blank. O.D. should be 1.0±10%. • 5. Turned on closed environment treatment chamber. • 6. Labeled three plates: Air, NO+1 minute, NO+3 minutes. • 7. Immersed a sterile cotton swab into the bacterial mixture in the 50 mL tube and shaked off excess liquid. • 8. Swiped one plate entirely in two directions with the swab. • 9. […] After incubation, recorded results with digital pictures. • 14. […]

[5] = Viability after 25,000 ppm gNO (Example 5), NHBE; format: cell-based; conditions: human, normal human bronchial epithelial cells (NHBE)
Protocol: as §1, §2, §3

[6] = tested on: A549-epithelial lung carcinoma cells; test: MTS proliferation assay, A549 cells exposed to 200 or 350 ppm gNO (Example 1); format: cell-based, human; parameters: MTS assay reading, Average / MTS assay reading, Corrected Average: unit not given here; conditions: for MTS assay reading, Corrected Average: blank subtracted; for Survival: vs air control
Protocol: The purpose of this example is to illustrate the effect of continuous gaseous nitric oxide (gNO) 200 ppm and 350 ppm compared to air (control) on the survival of a representative line of cancer cells. Cancer cell lines (A549-epithelial lung carcinoma cells and H460-epithelial metastatic; large cell lung cancer cells) were prepared in F12 medium and suspended in six 96-well plates (3 treatment and 3 controls). […] The plates then were removed and cell viability assessed by an MTS proliferation assay.
as §4

[7] = 200 ppm NO, 1 hour, HBSS medium
[8] = 200 ppm NO, 2.5 hours, F12 medium
[9] = 200 ppm NO, 2.5 hours, HBSS medium
[10] = 200 ppm NO, 3.5 hours, F12 medium
[11] = 200 ppm NO, 3.5 hours, HBSS medium
[12] = 350 ppm NO, 2 hours, F12 medium

[N]=O [gNO, nitric oxide]
viability at 6 min, 25000 ppm ([1]; 6 minutes): ~30% | viability at 15 min, 25000 ppm ([1]; after 15 minutes of exposure): 30% | cells killed [2]: 75-95% | viability at 6 min, 25000 ppm [3]: < 10% | MTS assay reading, Average [4]: 0.158 | MTS assay reading, Corrected Average ([4]; blank subtracted): 0.037 | cells killed (cancer cell lines): 75-95% | plate appearance after incubation (FIG. 4) (Staphylococcus aureus; 1 minute of exposure): still shows signs of the S. aureus | plate appearance after incubation (FIG. 5) (Staphylococcus aureus; 3 minutes of exposure): no signs of the S. aureus | viability at 6 min, 25000 ppm [5]: < 10% | MTS assay reading, Average ([6]; 200 ppm NO, 1 hour, F12 medium): 0.852 | MTS assay reading, Corrected Average ([6]; 200 ppm NO, 1 hour, F12 medium): 0.621 | Survival ([6]; 200 ppm NO, 1 hour, F12 medium): about 92% | MTS assay reading, Average [6, 7]: 0.06 | MTS assay reading, Corrected Average [6, 7]: 0 | MTS assay reading, Average [6, 8]: 1.276 | MTS assay reading, Corrected Average [6, 8]: 0.918 | Survival [6, 8]: about 90% | MTS assay reading, Average [6, 9]: 0.06 | MTS assay reading, Corrected Average [6, 9]: 0 | MTS assay reading, Average [6, 10]: 1.529 | MTS assay reading, Corrected Average [6, 10]: 1.059 | Survival [6, 10]: about 87% | MTS assay reading, Average [6, 11]: 0.061 | MTS assay reading, Corrected Average [6, 11]: 0 | MTS assay reading, Average [6, 12]: 0.110 | MTS assay reading, Corrected Average [6, 12]: 0.009
